Measured values published in the supplement of paper PMC10307832.

How the values were obtained:
Assay in all cases: relative viability (nuclei count vs DMSO), 5 days (fraction); higher = more cells survive
Vismodegib + Decitabine = compound: CS(=O)(=O)c1ccc(C(=O)Nc2ccc(Cl)c(-c3ccccn3)c2)c(Cl)c1 [Vismodegib] + Nc1ncn([C@H]2C[C@H](O)[C@@H](CO)O2)c(=O)n1 [Decitabine] (partner 2 µM)
Procedure, shortened: (§1)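 Nuclei were stained with Hoechst during a one-step fixation (final 0.05% Triton X-100, 1% formaldehyde, 1 ug/ml Hoechst) carried out 5 days after dosing, then counted on 4× images. The cells, lung cancer lines in 1536-well plates, had been dosed by pin tool the day after seeding with one drug alone or a fixed anchor-drug dose plus five library-drug doses (not always all listed) in √10 steps. Relative viability is the nuclei count in treated wells divided by that in vehicle wells, and each value is the median of duplicate plates.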

Ruxolitinib + Phenformin = compound: N#CC[C@H](C1CCCC1)n1cc(-c2ncnc3[nH]ccc23)cn1 [Ruxolitinib] + N=C(N)NC(=N)NCCc1ccccc1 [Phenformin] (partner 250 µM)
Procedure, shortened: as §1

VE-821 + Alpelisib = compound: CS(=O)(=O)c1ccc(-c2cnc(N)c(C(=O)Nc3ccccc3)n2)cc1 [VE-821] + Cc1nc(NC(=O)N2CCC[C@H]2C(N)=O)sc1-c1ccnc(C(C)(C)C(F)(F)F)c1 [Alpelisib] (partner 2 µM)
Procedure, shortened: as §1

Ruxolitinib + Pictilisib = compound: N#CC[C@H](C1CCCC1)n1cc(-c2ncnc3[nH]ccc23)cn1 [Ruxolitinib] + CS(=O)(=O)N1CCN(Cc2cc3nc(-c4cccc5[nH]ncc45)nc(N4CCOCC4)c3s2)CC1 [Pictilisib] (partner 1 µM)
Procedure, shortened: as §1

Cell Line	relative viability (Vismodegib + Decitabine; first compound 0.08 µM)	relative viability (Vismodegib + Decitabine; first compound 0.253 µM)	relative viability (Vismodegib + Decitabine; first compound 0.8 µM)	relative viability (Vismodegib + Decitabine; first compound 8 µM)	relative viability (Ruxolitinib + Phenformin; first compound 0.08 µM)	relative viability (Ruxolitinib + Phenformin; first compound 0.253 µM)	relative viability (Ruxolitinib + Phenformin; first compound 0.8 µM)	relative viability (Ruxolitinib + Phenformin; first compound 2.53 µM)	relative viability (Ruxolitinib + Phenformin; first compound 8 µM)	relative viability (Vismodegib + Decitabine; first compound 2.53 µM)	relative viability (VE-821 + Alpelisib; first compound 0.08 µM)	relative viability (VE-821 + Alpelisib; first compound 0.253 µM)	relative viability (VE-821 + Alpelisib; first compound 0.8 µM)	relative viability (VE-821 + Alpelisib; first compound 2.53 µM)	relative viability (VE-821 + Alpelisib; first compound 8 µM)	relative viability (Ruxolitinib + Pictilisib; first compound 0.08 µM)	relative viability (Ruxolitinib + Pictilisib; first compound 0.253 µM)	relative viability (Ruxolitinib + Pictilisib; first compound 0.8 µM)	relative viability (Ruxolitinib + Pictilisib; first compound 2.53 µM)	relative viability (Ruxolitinib + Pictilisib; first compound 8 µM)
SW 900	0.404	0.417	0.429	0.481	0.532	0.624	0.702	0.543	0.457											
NCI-H358	0.21	0.228	0.21	0.225	0.291	0.271	0.319	0.189	0.26	0.256	1.04	0.999	0.904	0.838	0.605	0.413	0.343	0.342	0.268	0.265
ChaGo-K-1	0.503	0.508	0.504	0.561	0.45	0.401	0.414	0.449	0.446	0.505							0.555	0.668	0.776	0.727
NCI-H1755	0.686	0.727	0.693	0.723	0.613	0.586	0.575	0.527	0.526	0.677	1.01	0.887	0.622	0.946	0.62	0.425	0.43	0.469	0.329	0.297
LCLC-103H	0.74	0.755	0.768	0.735	0.349	0.326	0.298	0.337	0.286	0.726	1	0.95	0.85	0.966	0.986	0.58	0.597	0.592	0.524	0.597
HCC-827	0.326	0.333	0.34	0.353		0.35	0.32	0.304	0.411	0.302	1.05	0.972	0.784	1.07	0.825	0.654	0.973	0.919	0.906	0.944
HCC-44	0.945	0.942	0.93	1.04	0.103	0.143	0.228	0.168	0.216	0.937	0.83	0.807	0.717	1.03	0.885	0.594	0.649	0.686	0.463	0.307
NCI-H727	0.9	1.01	0.857	0.9	0.505	0.55	0.576	0.599	0.848	0.837	0.687	0.683	0.585	0.551	0.425	0.427	0.384	0.6	0.309	0.725
NCI-H1563					0.667	0.69	0.643	0.593	0.602		0.896	0.933	0.739	0.805	0.797	0.653	0.669	0.691	0.623	0.661
NCI-H1650	0.411	0.388	0.426	0.512		0.315	0.455	0.388	0.331	0.447							0.608	0.734	0.551	0.645
COR-L 105	0.589	0.593	0.676	0.627	0.409	0.495	0.425	0.392	0.374	0.708	1	1	0.674	0.891	0.58	0.379	0.389	0.407	0.344	0.334
COR-L23	0.413	0.429	0.505	0.41	0.457	0.407	0.45	0.439	0.354	0.441	0.787	0.714	0.746	0.837	0.525	0.755	0.748	0.795	0.625	0.531
NCI-H596	0.889	0.967	0.979	1.07	0.975	0.793	0.801	0.706	0.836	0.997	0.486	0.458	0.39	0.511	0.413	0.379	0.339	0.387	0.418	0.386
NCI-H322M	0.694	0.651	0.661	0.635	0.777	0.768	0.936	0.962	1.02	0.822	0.728		0.763	0.881	0.612	0.4	0.604	0.491	0.611	0.665
H3255	0.569	0.567	0.578	0.562	0.232	0.339	0.289	0.295	0.405	0.604	0.821	0.76	0.665	0.844	0.66	0.206	0.435	0.516	0.427	0.48
PC-14	0.224	0.198	0.237	0.234		0.436	0.518	0.566	0.604	0.199	1.08	0.863	0.981	0.931	0.936		0.618	0.799	0.654	0.476
A549	0.268	0.228		0.205	0.0714	0.144	0.198	0.127	0.15	0.263	0.995	0.746	0.624	0.872	0.548	0.579	0.529	0.576	0.407	0.233
NCI-H2342	0.752	0.637	0.709	0.89	0.55	0.484	0.662	0.55	0.613	0.804										
NCI-H1623					0.525	0.608	0.574	0.637	0.343											
NCI-H520	0.491	0.445	0.572	0.499	0.565	0.323	0.717	0.483	0.58	0.459	0.953	1.1		0.883	0.784		0.258	0.236	0.251	0.34

Cell Line	relative viability (Vismodegib + Decitabine; first compound 0.08 µM)	relative viability (Vismodegib + Decitabine; first compound 0.253 µM)	relative viability (Vismodegib + Decitabine; first compound 0.8 µM)	relative viability (Vismodegib + Decitabine; first compound 8 µM)	relative viability (Ruxolitinib + Phenformin; first compound 0.08 µM)	relative viability (Ruxolitinib + Phenformin; first compound 0.253 µM)	relative viability (Ruxolitinib + Phenformin; first compound 0.8 µM)	relative viability (Ruxolitinib + Phenformin; first compound 2.53 µM)	relative viability (Ruxolitinib + Phenformin; first compound 8 µM)	relative viability (Vismodegib + Decitabine; first compound 2.53 µM)	relative viability (VE-821 + Alpelisib; first compound 0.08 µM)	relative viability (VE-821 + Alpelisib; first compound 0.253 µM)	relative viability (VE-821 + Alpelisib; first compound 0.8 µM)	relative viability (VE-821 + Alpelisib; first compound 2.53 µM)	relative viability (VE-821 + Alpelisib; first compound 8 µM)	relative viability (Ruxolitinib + Pictilisib; first compound 0.08 µM)	relative viability (Ruxolitinib + Pictilisib; first compound 0.253 µM)	relative viability (Ruxolitinib + Pictilisib; first compound 0.8 µM)	relative viability (Ruxolitinib + Pictilisib; first compound 2.53 µM)	relative viability (Ruxolitinib + Pictilisib; first compound 8 µM)
NCI-H2405	0.739	0.801	0.693	0.741		0.36	0.404	0.308	0.312	0.712	0.908	0.808	0.67	0.984	0.573		0.338	0.463	0.286	0.269
PC-3 [JPC-3]	0.863	0.838	0.904	0.864	0.428	0.477	0.477	0.443	0.481	0.814	1.05	0.957	1.02	1.05	1.04	0.507	0.752	0.763	0.678	0.7
EBC-1											0.888	0.75	0.742	0.779	0.683	0.386	0.309	0.583	0.353	0.32
NCI-H2347	0.645	0.603	0.593	0.612	0.385	0.406	0.453	0.533	0.505	0.646	1.08	0.997	0.916	1.18	0.977	0.437	0.637	0.554	0.485	0.674
LXF-289	0.324	0.414	0.369	0.431	0.509	0.492	0.538	0.491	0.497	0.363	1.14	1.06	1.02	1.2	1.18	0.785	0.797	0.804	0.739	0.498
HCC-78	0.561	0.736	0.661	0.786	0.756	0.563	0.788	0.662	0.729	0.698	0.448	0.289	0.217	0.394	0.229	0.162	0.14	0.207	0.255	0.216
HCC-366	0.374	0.283	0.377	0.311	0.584	0.654	0.667	0.542	0.472	0.331	0.654	0.419	0.123	0.213	0.0456	0.154	0.134	0.161	0.094	0.101
NCI-H2023	0.224	0.197	0.285	0.236	0.383	0.373	0.428	0.358	0.328	0.246	0.748	0.588	0.295	0.547	0.372	0.251	0.188	0.247	0.215	0.228
NCI-H1734	0.466	0.437	0.47	0.499	0.382	0.342	0.472	0.36	0.432	0.505	0.804	0.745	0.468	0.758	0.553	0.479	0.417	0.435	0.37	0.468
SK-LU-1	0.619	0.639	0.588	0.607	0.551	0.529	0.637	0.433	0.422	0.618	1.02	0.964	0.803	0.499	0.328	0.657	0.723	0.538	0.607	0.638
NCI-H3122	0.469	0.499	0.512	0.323		0.429	0.378	0.327	0.318	0.423	0.949	0.746	0.774	0.871	0.78	0.538	0.509	0.552	0.357	0.562
CAL-12T					0.437	0.674	0.596	0.444	0.408		1.22	1.08	1.37	1.32	0.837		0.355	0.416	0.435	0.471
NCI-H522	0.634	0.64	0.637	0.621	0.663	0.644	0.728	0.575	0.617	0.686										
HARA	0.553		0.514	0.55	0.431	0.536	0.516	0.391	0.319	0.509	1.05	0.912	0.688	0.926	0.704	0.467	0.472	0.404	0.426	0.328
Calu-6											0.988	0.896	0.939	0.972	0.66	0.99	0.943	0.958	0.828	0.667
IA-LM											0.905	0.475	0.797	1.04	0.738	0.349	0.35	0.387	0.544	0.46
NCI-H1648	0.499	0.472	0.482	0.527						0.459										
NCI-H2228					0.323	0.299	0.311	0.264	0.273		0.7	0.825	0.683	0.687	0.737	0.584	0.362	0.365	0.255	0.246
NCI-H1703											0.379	0.253	0.279	0.343	0.233	0.255	0.265	0.232	0.24	0.205
NCI-H1299											1.09	1.04	1.12	1.09	1.07	0.773	0.761	0.883	0.716	0.504
